The subject of series [1] is BMDM. In words: Cytotoxicity against C57BL/6J mouse Bone marrow macrophage cells assessed as reduction in cell viability at < 10 uM after 48 hrs by CCK-8 assay. The format is cell-based.
In series [2] the test system is BMDM. Nature of the series: Effect on RANKL/M-CSF-induced osteoclastogenesis in C57BL/6J mouse Bone marrow macrophage cells assessed as increase in number of osteoclasts at 0.1 to 1 uM compound for every 2 days and measured after 7 days by TRAP staining based light microscopic method. It counts as functional, cell-based.
Series [3] concerns BMDM. Nature of the series: Effect on RANKL/M-CSF-induced osteoclastogenesis in C57BL/6J mouse Bone marrow macrophage cells assessed as increase in area of osteoclasts at 0.1 uM compound for every 2 days and measured after 7 days by TRAP staining based light microscopic method. The format is functional, cell-based.
The subject of series [4] is BMDM. In words: Effect on RANKL/M-CSF-induced osteoclastogenesis in C57BL/6J mouse Bone marrow macrophage cells assessed as increase in number of osteoclasts at 1 uM compound for every 2 days and measured after 7 days by TRAP staining based light microscopic method. It counts as functional, cell-based.
For series [5], the system named is BMDM. Nature of the series: Inhibition of RANKL/M-CSF-induced osteoclastogenesis in C57BL/6J mouse Bone marrow macrophage cells assessed as decrease in number of osteoclasts at 0.1 to 1 uM compound for every 2 days and measured after 7 days by TRAP staining based light microscopic method. It counts as functional, cell-based.
Series [6] relates to BMDM. In words: Inhibition of RANKL/M-CSF-induced osteoclastogenesis in C57BL/6J mouse Bone marrow macrophage cells assessed as decrease in area of osteoclasts at 0.1 to 1 uM compound for every 2 days and measured after 7 days by TRAP staining based light microscopic method. The format is functional, cell-based.
The test system of series [7] is BMDM. In words: Effect on RANKL/M-CSF-induced osteoclastogenesis in C57BL/6J mouse Bone marrow macrophage cells assessed as increase in number of osteoclasts at 0.1 uM compound for every 2 days and measured after 7 days by TRAP staining based light microscopic method. It counts as functional, cell-based.

Activity calls are given as the source filed them. The calls are words filed in the database; no cut-off is given here.

Take `C=C1CC[C@@]2(O)C[C@@H]1[C@](C)(O)C(=O)[C@H]2C=C(C)C`: the Activity entry in the series on BMDM [1] is given as “Non-Toxic”.
Turning to `C=C1CC[C@@]2(O)C[C@@H]1[C@@](C)(O)C(=O)[C@H]2C=C(C)C`, in the series with BMDM [1], the Activity entry is listed as “Non-Toxic”. The outcome in the series with BMDM [2] and in the series with BMDM [3] was Active.
Consider `CC(C)=CC[C@H]1O[C@]1(C)[C@]1(CO)OC(=O)CC[C@]1(O)CCl`, for which the Activity result in the series with BMDM [1] is “Non-Toxic”. The result with BMDM [4] was Active.
In the case of `CO[C@@H]1C(=O)CC[C@]2(O)CO[C@@H](CC=C(C)C)[C@](C)(O)[C@@]12O`, the Activity entry in the series with BMDM [1] is on record as “Non-Toxic”. Moreover, the outcome with BMDM [2] and in the series on BMDM [3] was Active.
Regarding `CO[C@@H]1C(=O)CC[C@](O)(CCl)[C@@]1(O)[C@@]1(C)O[C@@H]1CC=C(C)C`, the Activity result with BMDM [1] was “Non-Toxic”. Further, the inhibition result in the series with BMDM [5] and in the series on BMDM [6] was “Active” throughout.
On to `CC[C@@H]1O[C@]2(C[C@H](O)C1(C)C)OC(=O)C[C@@H]2NC(C)=O`, for which, in the series with BMDM [1], the Activity result is “Non-Toxic”.
For the molecule `CC/C=C\[C@H](O)[C@H](O)C1=C(C)C(=O)[C@]2(O1)C(=O)N[C@@](OC)(C(=O)c1ccccc1)[C@@H]2O` [PSEUROTIN A], the Activity entry in the series with BMDM [1] is reported as “Non-Toxic”. Besides, in the series with BMDM [7], the outcome was Active.
Turning to `CO[C@@H]1C(=O)CC[C@]2(O)C[S+]([O-])[C@@H](CC=C(C)C)[C@](C)(O)[C@@]12O` (some centres undefined), the Activity entry in the series on BMDM [1] was “Non-Toxic”.
`CO[C@@H]1[C@H](O)CC[C@]2(O)C[S+]([O-])[C@@H](CC=C(C)C)[C@](C)(O)[C@@]12O` (some centres undefined): the Activity entry in the series on BMDM [1] is “Non-Toxic”.
In the case of `C=C1CCC2(O)CC1C2(C)[C@H](O)CC=C(C)C` (some centres undefined), in the series with BMDM [1], the Activity entry was “Non-Toxic”.
Still for that read-out and setting: then `CO[C@@H]1C(=O)CC[C@]2(CO2)[C@@]1(O)[C@@]1(C)O[C@@H]1CC=C(C)C` [OVALICIN], with “Non-Toxic”.

For the origin of these results see ChEMBL document CHEMBL4334440, “Osteoclastogenesis Regulation Metabolites from the Coral-Associated Fungus Pseudallescheria boydii TW-1024-3” (J Nat Prod, 2019).
